For one assay, the target named is T1, NPR-32 (Caenorhabditis elegans, UniProt O62403).
T1 sequence (O62403 1-440): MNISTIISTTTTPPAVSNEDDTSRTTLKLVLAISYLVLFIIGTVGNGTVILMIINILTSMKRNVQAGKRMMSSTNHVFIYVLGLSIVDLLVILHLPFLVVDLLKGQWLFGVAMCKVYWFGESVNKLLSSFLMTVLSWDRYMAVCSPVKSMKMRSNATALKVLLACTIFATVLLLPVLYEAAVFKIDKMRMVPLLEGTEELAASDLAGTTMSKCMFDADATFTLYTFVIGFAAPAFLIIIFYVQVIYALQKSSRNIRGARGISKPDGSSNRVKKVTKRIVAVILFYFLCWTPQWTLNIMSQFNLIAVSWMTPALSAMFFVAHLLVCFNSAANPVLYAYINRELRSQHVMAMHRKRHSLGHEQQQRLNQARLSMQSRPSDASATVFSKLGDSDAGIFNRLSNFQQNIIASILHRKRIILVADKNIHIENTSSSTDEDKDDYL
As to the kind of experiment: Saturation binding of [3H]CP55,940 to NPR-32 receptors. Also noted: species or system C. elegans. As to conditions: saturation binding curve, worm membranes, read-out: apparent Kd. On the procedure:
(§1) Briefly, 75 μg of crude membrane preparations were resuspended in 300 μL of assay buffer (50 mM Tris-HCl, 2.5 mM EDTA, 5 mM MgCl2, 0.5% BSA, pH 7.5) in silanized glass tubes and preincubated with 5 µM JZL-195 for 30 min at 30 °C. […] CP55,940 for 75 min at 30 °C. After the incubation time, membrane suspensions were rapidly filtered through a 0.1% polyethyleneimine presoaked 96-well microplate bonded with GF/B glass fiber filters (UniFilter-96 GF/B, PerkinElmer Life Sciences) under vacuum and washed 12 times with 120 µL of washing buffer (50 mM Tris-HCl, 2.5 mM EDTA, 5 mM MgCl2, 0.5% BSA, pH 7.5). Filters were added with 50 µL of MicroScint20 scintillation liquid, and radioactivity was measured with the 1450 MicroBeta Trilux top counter (PerkinElmer Life Sciences). The results were analyzed with GraphPad Prism 5® and expressed as % of [^3H]CP55,940 binding. IC50 values of each compound were estimated from fitted nonlinear curves and were used to calculate the Ki values by applying the Cheng-Prusoff equation. Specific binding was determined using the npr-32(ok2541) mutant strain in which saturation binding was abolished. Importantly, normalizing against the NPR-19 null mutant strain- npr-19(ok2068), no saturation binding curve could be achieved.
However, no binding or other direct interactions between AEA and these GPCRs were reported. […]

For a further assay, the system named is NPR-19. The assay is described as follows: [3H]CP55,940 binding normalized against NPR-19 null mutant npr-19(ok2068). Also noted: species or system C. elegans. As to conditions: no saturation binding curve (data not shown). How it is done:
as §1

For `CCCCCCC(C)(C)c1ccc([C@@H]2C[C@H](O)CC[C@H]2CCCO)c(O)c1` [CP55,940], the Kd on NPR-32 came to 2.5 ± 1.8 nM. Also, the “binding to NPR-19” value in the assay on NPR-19 is listed as “did not bind”.

Values taken from publication PMC7564282, “Juniperonic Acid Biosynthesis is Essential in Caenorhabditis elegans Lacking Δ6 Desaturase (fat-3) and Generates New ω-3 Endocannabinoids” (Cells, 2020).
